Where two headings read alike, the source gives them in different places. Residues, ends and D or L forms follow the SMILES beside them. No end group written: not given here.

Data on eleven molecules can be found in patent US6183736A, “Small peptides with antipathogenic activity, treated plants and methods for treating same” (USDA/ARS Southern Regional Research Center, priority 1999, dated 2001).

The test system of experiment [1] is Micrococcus luteus protoplast. Particulars: cited from earlier work.
Experiment [2] relates to Aspergillus flavus. The experiment is described as follows: Disc plate diffusion assay. Type of experiment: cell-based. Particulars: purified peptide on filter paper disc. As for the experimental part: Mycelium plugs from actively growing fungal cultures were placed in the center of the petri plate. After incubation at 27° C. to allow vegetative growth, samples were applied on sterile filter paper discs laid on the agar surface. Precipitation with ammonium sulfate. The 7th day culture filtrate was sequentially precipitated with 20, 40, 60 and 80% ammonium sulfate. […] After complete purification of the antifungal peptides as described in example 8, removing salt by purification on a […] cartridge (waters) and freeze drying, both peptides were quantified by weight. […] The antifungal assays are described in example 2.

Experiment [3] concerns Aspergillus flavus. Type of experiment: cell-based. As for the experimental part: Description of the method for the antifungal assays. […] Each well contained 100 μl Potato Dextrose Agar (PDA, Difco Laboratories) and 100 μl of sample and was inoculated with 500 spores of Aspergillus flavus. Fungal growth was monitored by reading optical density (O.D.) at 560 nm (Dynatech microplate reader). […] After complete purification of the antifungal peptides as described in example 8, removing salt by purification on a […] cartridge (waters) and freeze drying, both peptides were quantified by weight. […] The antifungal assays are described in example 2.

Experiment [4] concerns Micrococcus luteus. Particulars: cited from earlier work.
Another experiment concerns Mycosphaerella pinodes. Particulars: cited from earlier work.
A further experiment relates to Candida tropicalis. Particulars: cited from earlier work.
Experiment [5] concerns Candida albicans. Particulars: cited from earlier work.
Experiment [6] concerns Aspergillus niger. Particulars: cited from earlier work.
The test system of experiment [7] is Kluyveromyces bulgaris. Particulars: cited from earlier work.
Another experiment relates to Saccharomyces cerevisiae. Particulars: cited from earlier work.
Experiment [8] concerns Fusarium oxysporum. Particulars: cited from earlier work.
The test system of experiment [9] is Cladosporium cladosporioides. Particulars: cited from earlier work.
The test system of experiment [10] is Aspergillus niger. Particulars: cited from earlier work. This is another data set of the same source.
The subject of another experiment is Saccharomyces cerevisae. Particulars: cited from earlier work.
The test system of experiment [11] is Fusarium oxysporum. Particulars: cited from earlier work. This is another data set of the same source.
The next experiment has as its system Absydia corymbifera. Particulars: cited from earlier work.
For experiment [12], the system named is Kluyveromyces bulgaris. Particulars: cited from earlier work. The source holds these as a separate data set.
Experiment [13] has as its system Candida albicans. Particulars: cited from earlier work. This is another data set of the same source.
Experiment [14] deals with various yeasts, fungi and phytopathogenic fungi. Particulars: cited from earlier work.
Another experiment concerns bacteria. Particulars: cited from earlier work.
The subject of another experiment is Sclerotina fructigena. Particulars: cited from earlier work.
Experiment [15] relates to Trichophyton mentagrophytes. Particulars: cited from earlier work.
For another experiment, the system named is Sarcinia lutea. Particulars: cited from earlier work.
A further experiment relates to Penicillium chysogenum. Particulars: cited from earlier work.
In another experiment the test system is Neurospora crassa. Particulars: cited from earlier work.
For the next experiment, the system named is Pleospora herbarum. Particulars: cited from earlier work.
In another experiment the test system is Bacillus cereus. Particulars: cited from earlier work.
In another experiment the test system is Streptomyces albus G. Particulars: cited from earlier work.
The next experiment deals with Stemphylium radicinum. Particulars: cited from earlier work.
In a further experiment the test system is Staphylococcus aureus. Particulars: cited from earlier work.
A further experiment concerns Sclerotina sclerotiorum. Particulars: cited from earlier work.
In the next experiment the test system is Azotobacter vinelandii. Particulars: cited from earlier work.
The test system of the next experiment is Brucella brochiseptica. Particulars: cited from earlier work.
In the next experiment the test system is Botrytis cinerea. Particulars: cited from earlier work.
The next experiment relates to Escherichia coli K12. Particulars: cited from earlier work.
Experiment [16] concerns Micrococcus luteus. Particulars: cited from earlier work. This is another data set of the same source.
In another experiment the test system is Rhodotorula pillimanae. Particulars: cited from earlier work.
Another experiment has as its system Ceratocystis fagacearum. Particulars: cited from earlier work.
Another experiment concerns Ophiostoma ulmi. Particulars: cited from earlier work.
Another experiment relates to Cryphonectria parasitica. Particulars: cited from earlier work.
The next experiment deals with Verticillium dahliae. Particulars: cited from earlier work.

Take “Iturin A (NYNQPNS; also: cyclic with β-amino fatty acid, ring closure not described) [cyclic lipopeptide of Bacillus subtilis: Asn Tyr Asn Gln Pro Asn Ser with β amino acid n-C14, i-C15, a-C15]”: the “Lysis of Micrococcus luteus protoplast” value in [1] is recorded as “able to lyse”. Further, in the experiment with Aspergillus flavus [2], the “Disc plate diffusion assay Minimal amount to inhibit hyphal growth” value was > 50 µg. Also, the “Microtiter plate Minimal inhibitory concentration (MIC)” value in the experiment on Aspergillus flavus [3] (Aspergillus flavus, 500 spores per well, O.D. 560 nm) was 250 µM. Further, the “Inhibition of growth of Micrococcus luteus” value (“Inhibition” below) in the experiment with Micrococcus luteus [4] is listed as “inhibited the growth”.
With “a1: cyclic lipopeptide from B. subtilis AU195, bacillomycin D family, [M+H] 1045.5, linearised sequence STNYNPE, β-amino fatty acid believed of 15 carbons (not fully specified; also: cyclic lipopeptide, C15 β-amino fatty acid (hydroxy fatty acid at Thr suggested), sequence given after Glu-C linearisation)”, in the experiment on Aspergillus flavus [2], the “Disc plate diffusion assay Minimal amount to inhibit hyphal growth” value turned out to be 15 µg.
Bacillomycin Fc: the MIC (usually the lowest concentration that inhibits growth of the organism) with Mycosphaerella pinodes was 30 µg/mL; in the experiment with Candida tropicalis, > 200 µg/mL; in the experiment with Candida albicans [5] it was > 200 µg/mL; in the experiment with Aspergillus niger [6] it was 30 µg/mL; in the experiment on Kluyveromyces bulgaris [7], 40 µg/mL; in the experiment on Saccharomyces cerevisiae it was 30 µg/mL. Besides, the MIC in the experiment on Fusarium oxysporum [8] was > 200 µg/mL; in [9], 40 µg/mL.
For “Mycosubtilin (NYNQPSN; also: cyclic lipopeptide with β-amino fatty acid, ring closure not described) [Mycosubtlin, iturin lipopeptide: Asn Tyr Asn Gln Pro Ser Asn with β amino acid i-C16, a-C17]”, the “Lysis of Micrococcus luteus protoplast” value in [1] is given as “able to lyse”. Also, in the experiment with Micrococcus luteus [4], the “Inhibition” value was “inhibited the growth”.
“Bacillomycin D (NYNPEST; also: cyclic lipopeptide with β-amino fatty acid, ring closure not described) [iturin lipopeptide: Asn Tyr Asn Pro Glu Ser Thr with β amino acid n-C14, i-C15, a-C15]”: the Antifungal activity entry in the experiment on Aspergillus niger [10], in the experiment on Saccharomyces cerevisae, with Fusarium oxysporum [11], with Absydia corymbifera, in the experiment on Kluyveromyces bulgaris [12] and in the experiment with Candida albicans [13] was “antifungal” each time.
With Bacillomycin Fb, the minimal inhibitory concentration (MIC) with Mycosphaerella pinodes was 100 µg/mL; in the experiment with Candida tropicalis it was > 200 µg/mL; in the experiment on Candida albicans [5], > 200 µg/mL; in the experiment with Aspergillus niger [6], 25 µg/mL; with Kluyveromyces bulgaris [7] it was 75 µg/mL; in the experiment with Saccharomyces cerevisiae it was 25 µg/mL. The MIC is > 200 µg/mL in the experiment with Fusarium oxysporum [8] and 25 µg/mL in experiment [9].
For the molecule “Bacillomycin L (DYNSQST; also: cyclic lipopeptide with β-amino fatty acid, ring closure not described) [iturin lipopeptide: Asp Tyr Asn Ser Gln Ser Thr with β amino acid n-C14, i-C15, a-C15]”, the “Lysis of Micrococcus luteus protoplast” value in [1] is recorded as “no effect”. For the same molecule, in the experiment on Micrococcus luteus [4], the “Inhibition” value is recorded as “inhibited the growth”.
In the case of “Bacillomycin F (NYNQPNT; also: cyclic lipopeptide with β-amino fatty acid, ring closure not described) [iturin lipopeptide: Asn Tyr Asn Gln Pro Asn Thr with β amino acid i-C16, i-C17, a-C17]”, in [14], the Antifungal activity result was “strong antifungal activity”. The Antibacterial activity entry in the experiment with bacteria is given as “weak antibacterial activity”.
Take Bacillomycin Fa: the MIC is 10 µg/mL in the experiment on Mycosphaerella pinodes; 40 µg/mL in the experiment on Candida tropicalis; 40 µg/mL in the experiment on Sclerotina fructigena; 20 µg/mL in experiment [15]; > 400 µg/mL in the experiment with Sarcinia lutea; 40 µg/mL in the experiment on Candida albicans [5]. Further, the MIC with Penicillium chysogenum is 20 µg/mL; in the experiment on Neurospora crassa, 80 µg/mL; in the experiment on Aspergillus niger [6] it was 40 µg/mL; in the experiment on Pleospora herbarum, 10 µg/mL; in the experiment with Bacillus cereus, > 400 µg/mL; in the experiment on Streptomyces albus G, > 400 µg/mL. Moreover, the MIC is 10 µg/mL in the experiment with Saccharomyces cerevisiae; 320 µg/mL in the experiment with Stemphylium radicinum; > 320 µg/mL with Fusarium oxysporum [8]; > 400 µg/mL in the experiment with Staphylococcus aureus; 50 µg/mL in the experiment on Sclerotina sclerotiorum; > 400 µg/mL with Azotobacter vinelandii. For the same molecule, the MIC in the experiment with Brucella brochiseptica is > 400 µg/mL; in the experiment on Botrytis cinerea, 20 µg/mL; in the experiment on Escherichia coli K12 it was > 400 µg/mL; in the experiment with Micrococcus luteus [16] it was 200 µg/mL; with Rhodotorula pillimanae, 80 µg/mL.
Regarding Bacillomycin Lc, the Antifungal activity entry with Ceratocystis fagacearum, with Ophiostoma ulmi, with Cryphonectria parasitica and in the experiment on Verticillium dahliae was “antifungal activity” each time.
For `CCCCCCCCCCCCC[C@@H]1CC(=O)N[C@@H](CC(N)=O)C(=O)N[C@H](Cc2ccc(O)cc2)C(=O)N[C@H](CC(N)=O)C(=O)N2CCC[C@H]2C(=O)N[C@@H](CCC(=O)O)C(=O)N[C@H](CO)C(=O)N[C@@H]([C@@H](C)O)C(=O)N1` [a2] (HELM PEPTIDE1{E.[dS].T.[CCCCCCCCCCCCC[C@H](CC(=O)[*:2])N[*:1]].N.[dY].[dN].P}$PEPTIDE1,PEPTIDE1,1:R1-8:R2$$$V2.0), in the experiment on Aspergillus flavus [2], the “Disc plate diffusion assay Minimal amount to inhibit hyphal growth” value came to 3 µg. Moreover, in the experiment with Aspergillus flavus [3], the “Microtiter plate Minimal inhibitory concentration (MIC)” value was found to be 130 µM.
